Data as given in patent US9132109B2, “Use of non-steroidal anti-inflammatory drugs by inhalation in the treatment of acute and chronic bronchitis” (MEDESTEA RESEARCH & PRODUCTION S.P.A., priority 2005, dated 2015).
Where two headings read alike, the source gives them in different places.

What was measured:
[1] = system: patients with a diagnosis of COPD; assay: Peak expiratory flow (PEF) in COPD patients treated by inhalation; type: in vivo, human; settings: 900 mg lysine acetylsalicylate (equivalent to 500 mg acetylsalicylic acid) twice a day by inhalation, 30 days, vs 15-day baseline; two patients; similar at all 3 daily measurements
Protocol: The study involved 4 patients with a diagnosis of COPD according to the ATS/ERS guidelines (B R Celli et al. Eur. Respir. J. 2004; 23: 932-46), who were smokers or former smokers (≧20 packets a year). The patients were instructed in the use of a peak expiratory flow (PEF) measuring device using a peak flowmeter, and asked to record the PEF measurements in a daily diary. The measurements were performed 3 times a day: immediately after getting up in the morning, before lunch, and at night before going to bed. At least 3 daily PEF measurements are considered a good method for the measurement of pulmonary function (C A. Holcroft et al., Chest, 2003; 124: 501-10). PEF measurement has also been used, together with other spirometric tests, to evaluate potential COPD drugs (N A. Hanania et al., Chest, 2003; 124: 834-43). The patients were suitably instructed as to how to perform the PEF measurements, and asked to record the various measurements and any symptoms, whether correlated with the disease or not, in a daily diary. […] This basic treatment was continued for 15 days, during which the PEF values were recorded; their mean value was considered as the baseline value. […]

bronchitic patients [2] = settings: indomethacin inhaler; Tamaoki et al.; cited from earlier work
asthma patients = settings: by inhalation, Sestini P. et al. 1999; cited from earlier work
bronchitic patients [3] = settings: cited from earlier work
bronchitic patients [4] = assay: Pulmonary function and pro-inflammatory parameters in bronchitic patients after nebulised drug; type: in vivo, human; settings: aspirin by nebuliser
Protocol: The study involved 4 patients with a diagnosis of COPD according to the ATS/ERS guidelines (B R Celli et al. Eur. Respir. J. 2004; 23: 932-46), who were smokers or former smokers (≧20 packets a year). The patients were instructed in the use of a peak expiratory flow (PEF) measuring device using a peak flowmeter, and asked to record the PEF measurements in a daily diary. The measurements were performed 3 times a day: immediately after getting up in the morning, before lunch, and at night before going to bed. […] The patients were suitably instructed as to how to perform the PEF measurements, and asked to record the various measurements and any symptoms, whether correlated with the disease or not, in a daily diary. Before beginning treatment with 900 mg lysine acetylsalicylate (equivalent to 500 mg of acetylsalicylic acid) twice a day, morning and evening, administered after measurement of the corresponding PEF, the patients discontinued all pharmacological treatment except for short-acting bronchodilators in accordance with the ATS/ERS guidelines (B R Celli et al. Eur. Respir. J. 2004; 932-46) as first-line of treatment. This basic treatment was continued for 15 days, during which the PEF values were recorded; their mean value was considered as the baseline value. […]

Question: With `CC(=O)Oc1ccccc1C(=O)O` [lysine acetylsalicylate] as the molecule, how does the “mean increase in PEF” value [1] read?
Answer: Its value is 8 to 10 L/min.

Question: Which “variation in respiratory function (FEV1)” value (bronchitic patients [2]) does the source give for `COc1ccc2c(c1)c(CC(=O)O)c(C)n2C(=O)c1ccc(Cl)cc1` [indomethacin] here?
Answer: Its value is “did not observe any significant variation”.

Question: What about the immediate allergen-induced bronchoconstriction (asthma patients) of the same molecule?
Answer: Its immediate allergen-induced bronchoconstriction is “ineffective”.

Question: And the sputum volume (bronchitic patients [3]; indomethacin inhaler, Tamaoki J. et al. 1992)?
Answer: The sputum volume was “reduction in sputum volume”.

Question: With `CC(=O)Oc1ccccc1C(=O)O` [aspirin, acetylsalicylic acid] as the molecule, how does the pulmonary function (bronchitic patients [4]) read?
Answer: The pulmonary function was “definite improvement”.

Question: And the pulmonary pro-inflammatory parameters (bronchitic patients [4])?
Answer: Its pulmonary pro-inflammatory parameters is “reduction”.

Question: And the immediate allergen-induced bronchoconstriction (asthma patients)?
Answer: Its immediate allergen-induced bronchoconstriction is “inhibited”.

Question: And the sputum volume (bronchitic patients [3]; aspirin by inhalation, Inoue H et al. 1991)?
Answer: The sputum volume was “reduces the sputum volume”.
